Experiment [1] deals with T1, Renin (Homo sapiens) (UniProt P00797).
T1 sequence (whole entry): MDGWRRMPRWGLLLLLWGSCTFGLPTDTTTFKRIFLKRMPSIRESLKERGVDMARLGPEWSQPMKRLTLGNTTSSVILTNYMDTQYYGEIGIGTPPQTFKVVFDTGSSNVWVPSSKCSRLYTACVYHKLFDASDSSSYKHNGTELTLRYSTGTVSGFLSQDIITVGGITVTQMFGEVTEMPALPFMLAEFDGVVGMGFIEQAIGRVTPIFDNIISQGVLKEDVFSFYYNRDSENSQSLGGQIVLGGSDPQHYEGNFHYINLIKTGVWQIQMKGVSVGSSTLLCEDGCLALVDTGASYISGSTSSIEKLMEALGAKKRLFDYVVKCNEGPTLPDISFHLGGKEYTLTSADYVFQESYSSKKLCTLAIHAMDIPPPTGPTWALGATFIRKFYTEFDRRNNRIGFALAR
The experiment can be described thus: Inhibition of recombinant human N-terminal FLAG-tagged renin (67 to 406 residues) expressed in HEK cells at 50 nM using Arg-Glu(EDANS)-Ile-His-Pro-Phe-His-Leu-Val-Ile-His-Thr-Lys(Dabcyl)-Arg as substrate preincubated for 10 mins followed by substrate addition and measured by FRET assay.

The next experiment addresses Cathepsin D (Homo sapiens, UniProt P07339). Nature of the experiment: Inhibition of human placenta CatD using Abz-Lys-Pro-Ala-Glu-Phe-Nph-Ala-Leu as substrate preincubated for 10 mins followed by substrate addition and measured by FRET assay.
In experiment [2] the target is Beta-secretase 1 (Homo sapiens) (UniProt P56817). The experiment can be described thus: Inhibition of recombinant human C-terminal 10His-tagged BACE1 expressed in mouse NS0 cells at 5 uM using Mca-Ser-Glu-Val-Asn-Leu-Asp-Ala-Glu-Phe-Arg-Lys(Dnp)-Arg-Arg as substrate preincubated for 10 mins followed by substrate addition and measured by FRET assay.
Sequence of Beta-secretase 1 (Homo sapiens) (P56817 whole entry): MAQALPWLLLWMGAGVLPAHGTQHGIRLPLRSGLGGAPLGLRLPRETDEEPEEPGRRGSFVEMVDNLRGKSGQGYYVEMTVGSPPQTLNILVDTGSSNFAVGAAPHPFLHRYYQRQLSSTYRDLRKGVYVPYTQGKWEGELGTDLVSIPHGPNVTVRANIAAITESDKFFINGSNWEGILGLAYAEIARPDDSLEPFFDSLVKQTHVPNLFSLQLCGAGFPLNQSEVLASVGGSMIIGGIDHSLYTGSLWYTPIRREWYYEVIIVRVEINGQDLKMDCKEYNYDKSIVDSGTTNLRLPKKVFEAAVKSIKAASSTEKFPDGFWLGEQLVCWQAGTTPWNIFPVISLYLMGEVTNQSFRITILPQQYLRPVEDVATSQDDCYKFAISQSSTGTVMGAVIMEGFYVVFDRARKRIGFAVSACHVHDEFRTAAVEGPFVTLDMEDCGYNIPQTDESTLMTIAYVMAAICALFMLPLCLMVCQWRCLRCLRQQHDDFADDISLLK
Another experiment concerns Ixodes ricinus. Nature of the experiment: Inhibition of Ixodes ricinus CatD expressed in Escherichia coli BL21(DE3) at 50 nM using Abz-Lys-Pro-Ala-Glu-Phe-Nph-Ala-Leu as substrate preincubated for 10 mins followed by substrate addition and measured by FRET assay.
The target in experiment [3] is Protease (Human immunodeficiency virus 1) (UniProt Q9YQ12). The experiment can be described thus: Inhibition of HIV1 protease at 50 nM using Abz-Tyr-Ile-Nle-Nph-Gln-Arg as substrate preincubated for 10 mins followed by substrate addition and measured by FRET assay.
Sequence of Protease (Human immunodeficiency virus 1) (Q9YQ12 as listed by the source): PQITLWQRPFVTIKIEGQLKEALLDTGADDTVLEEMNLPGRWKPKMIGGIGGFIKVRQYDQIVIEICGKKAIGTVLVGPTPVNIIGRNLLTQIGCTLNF
For experiment [4] the target is unchanged. Nature of the experiment: Inhibition of HIV1 protease at 5 uM using Abz-Tyr-Ile-Nle-Nph-Gln-Arg as substrate preincubated for 10 mins followed by substrate addition and measured by FRET assay.
Experiment [5] has as its target T1, Renin (Homo sapiens). The experiment can be described thus: Inhibition of recombinant human N-terminal FLAG-tagged renin (67 to 406 residues) expressed in HEK cells at 5 uM using Arg-Glu(EDANS)-Ile-His-Pro-Phe-His-Leu-Val-Ile-His-Thr-Lys(Dabcyl)-Arg as substrate preincubated for 10 mins followed by substrate addition and measured by FRET assay.
For experiment [6], the target named is Beta-secretase 1 (Homo sapiens) (UniProt P56817). Nature of the experiment: Inhibition of recombinant human C-terminal 10His-tagged BACE1 expressed in mouse NS0 cells at 50 nM using Mca-Ser-Glu-Val-Asn-Leu-Asp-Ala-Glu-Phe-Arg-Lys(Dnp)-Arg-Arg as substrate preincubated for 10 mins followed by substrate addition and measured by FRET assay.
In experiment [7] the target is Saccharopepsin (Saccharomyces cerevisiae S288c) (UniProt P07267). Nature of the experiment: Inhibition of Baker's yeast proteinase A at 50 nM using Abz-Lys-Pro-Ala-Glu-Phe-Nph-Ala-Leu as substrate preincubated for 10 mins followed by substrate addition and measured by FRET assay.
Sequence of Saccharopepsin (Saccharomyces cerevisiae S288c) (P07267 whole entry): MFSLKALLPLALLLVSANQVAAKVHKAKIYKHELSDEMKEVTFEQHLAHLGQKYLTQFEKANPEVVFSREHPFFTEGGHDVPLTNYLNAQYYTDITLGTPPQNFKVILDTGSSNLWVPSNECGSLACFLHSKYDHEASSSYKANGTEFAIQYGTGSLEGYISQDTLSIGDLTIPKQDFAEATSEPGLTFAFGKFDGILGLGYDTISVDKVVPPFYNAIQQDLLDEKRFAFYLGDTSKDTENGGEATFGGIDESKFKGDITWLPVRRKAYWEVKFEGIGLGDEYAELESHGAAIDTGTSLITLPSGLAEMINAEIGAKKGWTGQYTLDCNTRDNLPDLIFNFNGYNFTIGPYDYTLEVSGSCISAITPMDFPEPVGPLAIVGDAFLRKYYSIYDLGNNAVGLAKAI

The structures appear in SMILES notation. Calls of active or inactive are those of the source. The calls are words filed in the database; no cut-off is given here. Non-standard residues stand in square brackets, D forms with d. Residues, ends and D or L forms follow the SMILES beside them. *: point of attachment. Sta = CC(C)C[C@H](N)[C@@H](O)CC(=O)O; Isovaleryl = CC(C)CC(=O)*

Sequence of Cathepsin D (P07339 65-162 limits assumed): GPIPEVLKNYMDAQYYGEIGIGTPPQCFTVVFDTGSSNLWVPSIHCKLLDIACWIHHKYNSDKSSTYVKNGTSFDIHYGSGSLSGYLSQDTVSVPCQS
Sequence of Cathepsin D (P07339 169-412 limits assumed): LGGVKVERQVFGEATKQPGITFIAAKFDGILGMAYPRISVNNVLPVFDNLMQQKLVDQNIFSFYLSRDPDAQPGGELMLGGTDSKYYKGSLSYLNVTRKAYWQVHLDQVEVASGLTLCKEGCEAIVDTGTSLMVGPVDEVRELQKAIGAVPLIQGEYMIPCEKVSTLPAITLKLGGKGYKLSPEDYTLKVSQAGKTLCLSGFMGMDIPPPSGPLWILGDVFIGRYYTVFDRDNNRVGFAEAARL

In the case of `CC(C)[C@@H]1NC(=O)C[C@H](O)[C@H](Cc2ccc(OCc3ccccc3)cc2)NC(=O)CCCCCCCCCCCNC1=O`, the inhibition result (on Renin (Homo sapiens) [1]; in experiment [3]; in experiment [6]) was “inactive” in each case. This compound displayed an IC50 against Cathepsin D of 55 nM. Moreover, the inhibition entry (in [2]; in the experiment on Ixodes ricinus; in experiment [4]; on Renin (Homo sapiens) [5]; in experiment [7]) was “Active” each time.
On to `CC(C)[C@@H]1NC(=O)C[C@H](O)[C@H](Cc2ccccc2)NC(=O)CCOCCOCCOCCNC1=O`, for which the inhibition entry (at Renin (Homo sapiens) [1]; in experiment [3]; in experiment [6]) was “inactive” each time. At Cathepsin D, this compound yielded a half-maximal inhibitory concentration (IC50) of 850 nM. For the same compound, the inhibition entry (in [2]; in the experiment on Ixodes ricinus; in [4]; at Renin (Homo sapiens) [5]; in experiment [7]) was “Active” each time.
With `CC(C)[C@@H]1NC(=O)CC[C@H](Cc2ccccc2)NC(=O)CCCCCCCCCCCNC1=O`, the inhibition entry (on Renin (Homo sapiens) [1]; in experiment [3]; in [6]) was “inactive” each time. At Cathepsin D, this compound yielded an IC50 of 2000 nM. The inhibition entry (in [2]; in the experiment on Ixodes ricinus; in experiment [4]; on Renin (Homo sapiens) [5]; in experiment [7]) was “Active” each time.
For `CC(C)[C@@H]1NC(=O)C[C@H](O)[C@H](CSCc2ccccc2)NC(=O)CCCCCCCCCCCNC1=O`, the inhibition entry (on Renin (Homo sapiens) [1]; in experiment [3]; in [6]) was “inactive” each time. On Cathepsin D, this compound gave a half-maximal inhibitory concentration (IC50) of 20 nM. Also, the inhibition entry (in experiment [2]; with Ixodes ricinus; in [4]; on Renin (Homo sapiens) [5]; in experiment [7]) was “Active” in each case.
Regarding `CC(C)[C@@H]1NC(=O)NC[C@H](O)[C@H](Cc2ccccc2)NC(=O)CCCCCCCCCCCNC1=O`, the inhibition result (at Renin (Homo sapiens) [1]; in experiment [3]; in experiment [6]) was “inactive” throughout. This compound showed a half-maximal inhibitory concentration (IC50) against Cathepsin D of 21 nM. Also, the inhibition result (in [2]; in the experiment with Ixodes ricinus; in experiment [4]; at Renin (Homo sapiens) [5]; in experiment [7]) was “Active” throughout.
Consider `CC(C)[C@@H]1NC(=O)C[C@H](O)[C@H](Cc2ccc(Cl)c(Cl)c2)NC(=O)CCCCCCCCCCCNC1=O`, for which the inhibition entry (at Renin (Homo sapiens) [1]; in [3]; in experiment [6]) was “inactive” throughout. For the same compound, at Cathepsin D, the 50% inhibitory concentration (IC50) was 4.2 nM. Further, the inhibition entry (in [2]; in the experiment on Ixodes ricinus; in [4]; at Renin (Homo sapiens) [5]; in experiment [7]) was “Active” in each case.
With `CC(C)CC(=O)N[C@@H](CC(C)C)[C@@H](O)CC(=O)N[C@@H](C)C(=O)O`, the IC50 on Cathepsin D was more than 200000 nM.
`CC(C)[C@@H]1NC(=O)C[C@H](O)[C@H](Cc2ccccc2)NC(=O)CCCCCCCCCCNC1=O`: the inhibition entry (at Renin (Homo sapiens) [1]; in experiment [3]; in experiment [6]) was “inactive” each time. On Cathepsin D, this compound returned an IC50 of 40 nM. The inhibition result (in [2]; in the experiment on Ixodes ricinus; in experiment [4]; on Renin (Homo sapiens) [5]; in experiment [7]) was “Active” each time.
For the compound `CC(C)CC(=O)N[C@H](C(=O)N[C@H](C(=O)N[C@@H](CC(C)C)[C@@H](O)CC(=O)O)C(C)C)C(C)C` (Isovaleryl-Val-Val-[Sta]-OH), at Cathepsin D, it took 500 nM to reach half-maximal inhibition (IC50).
As for `O=C1C[C@H](O)[C@H](Cc2ccccc2)NC(=O)CCCCCCCCCCCNC(=O)[C@H](C2CCCCC2)N1`, the inhibition entry (on Renin (Homo sapiens) [1]; in experiment [3]; in [6]) was “inactive” in each case. Also, 8.2 nM corresponded to half-maximal inhibition at Cathepsin D (IC50). In addition, the inhibition entry (in experiment [2]; in the experiment on Ixodes ricinus; in experiment [4]; on Renin (Homo sapiens) [5]; in [7]) was “Active” each time.
In the case of `CC(C)[C@@H]1NC(=O)C[C@H](O)[C@H](Cc2ccccc2)NC(=O)CCCCCCCCCCCCNC1=O`, the inhibition entry (at Renin (Homo sapiens) [1]; in experiment [3]; in [6]) was “inactive” throughout. It took 3.5 nM to reach half-maximal inhibition against Cathepsin D (IC50). The inhibition entry (in experiment [2]; in the experiment on Ixodes ricinus; in experiment [4]; on Renin (Homo sapiens) [5]; in experiment [7]) was “Active” each time.
`CC(C)[C@@H]1NC(=O)C[C@H](O)[C@H](Cc2ccc(O)cc2)NC(=O)CCCCCCCCCCCNC1=O`: the inhibition entry (at Renin (Homo sapiens) [1]; in experiment [3]; in experiment [6]) was “inactive” each time. At Cathepsin D, this compound came in with an IC50 of 39 nM. Besides, the inhibition entry (in [2]; in the experiment with Ixodes ricinus; in experiment [4]; at Renin (Homo sapiens) [5]; in [7]) was “Active” throughout.
Regarding `CC(C)[C@@H]1NC(=O)C[C@H](O)[C@H](Cc2ccc(F)c(F)c2)NC(=O)CCCCCCCCCCCNC1=O`, the inhibition entry (at Renin (Homo sapiens) [1]; in experiment [3]; in experiment [6]) was “inactive” each time. At Cathepsin D, the concentration for half-maximal inhibition (IC50) worked out at 3.1 nM. The inhibition result (in experiment [2]; in the experiment on Ixodes ricinus; in [4]; at Renin (Homo sapiens) [5]; in [7]) was “Active” each time.
Regarding `CC(C)CC(=O)N[C@@H](CC(C)C)[C@@H](O)CC(=O)N[C@@H](C)C(=O)N[C@@H](CC(C)C)[C@@H](O)CC(=O)O`, the IC50 against Cathepsin D was determined as 2500 nM.
Regarding `C[C@@H](O)[C@@H]1NC(=O)C[C@H](O)[C@H](Cc2ccccc2)NC(=O)CCCCCCCCCCCNC1=O`, the inhibition result (at Renin (Homo sapiens) [1]; in [3]; in [6]) was “inactive” throughout. This compound came in with a 50% inhibitory concentration (IC50) at Cathepsin D of 500 nM. The inhibition result (in experiment [2]; in the experiment on Ixodes ricinus; in experiment [4]; on Renin (Homo sapiens) [5]; in experiment [7]) was “Active” throughout.
For `C[C@@H](OCc1ccccc1)[C@@H]1NC(=O)C[C@H](O)[C@H](Cc2ccccc2)NC(=O)CCCCCCCCCCCNC1=O`, the inhibition entry (at Renin (Homo sapiens) [1]; in experiment [3]; in experiment [6]) was “inactive” in each case. The compound further showed an IC50 against Cathepsin D of 560 nM. Further, the inhibition entry (in [2]; in the experiment on Ixodes ricinus; in [4]; at Renin (Homo sapiens) [5]; in experiment [7]) was “Active” each time.
Regarding `C[C@@H]1NC(=O)C[C@H](O)[C@H](Cc2ccccc2)NC(=O)CCCCCCCCCCCNC1=O`, the inhibition result (on Renin (Homo sapiens) [1]; in experiment [3]; in experiment [6]) was “inactive” each time. On Cathepsin D, the IC50 came out at 68 nM. Also, the inhibition result (in [2]; in the experiment with Ixodes ricinus; in [4]; at Renin (Homo sapiens) [5]; in experiment [7]) was “Active” in each case.
At Cathepsin D, `CC(C)CC(=O)N[C@H](C(=O)N[C@H](C(=O)N[C@@H](CC(C)C)[C@@H](O)CC(=O)N[C@@H](C)C(=O)O)C(C)C)C(C)C` (Isovaleryl-VV[Sta]A-OH) yielded an IC50 of 40 nM.

For the origin of these results see ChEMBL document CHEMBL4321885, “Biomimetic Macrocyclic Inhibitors of Human Cathepsin D: Structure-Activity Relationship and Binding Mode Analysis” (J Med Chem, 2020).
